We go through three compounds from patent US9284292B2, “Sialochimeric compounds” (THERAPICON S.R.L., priority 2009, dated 2016).

The subject of series [1] is influenza virus A/H1N1 (A/New Caledonia/20/99). Put plainly: organism not typed. Type of series: cell-based, influenza virus type A. Particulars: MDCK, 72 h, read-out: EC50 vs A/H1N1.
The subject of series [2] is influenza virus A/H1N1 (A/New Caledonia/20/1999). The class given is cell-based, influenza virus type A.
The subject of series [3] is influenza virus B (B/Parma/1/07). Put plainly: microbe, parasite or virus in culture. The class given is cell-based. As to conditions: study I; for EC50: 72 h, MDCK cells, 50% plaque reduction vs control, 3 days.
For series [4], the system named is influenza virus A/H3N2 (A/Panama/2007/99). Put plainly: organism not typed. As to conditions: MDCK, 72 h, read-out: EC50 vs A/H3N2. Type of series: cell-based, influenza virus type A.
The conditions of series [5]: in vivo; cited from earlier work.

For `CCOC(=O)C1=CC(OC(CC)CC)C(NC(C)=O)C(NC2(C(=O)O)CC(O)C(NC(C)=O)C(CNC34CC5CC(CC(C5)C3)C4)O2)C1` (stereo not drawn) [THE 08/01, Amantadine-C7-Neu5Ac—C16H28N2O4], the EC50 in series [1] was found to be 9.9 µM; in series [2], 16 µM; in series [3], 126 µM; in series [4] it was 15.4 µM. In series [3] (higher versus type A than type B), the “antiviral activity versus virus type A relative to virus type B” value is 10 folds.
As to `CC(=O)NC1C(O)CC(NC(=N)NC2C=C(C(=O)O)OC(C(O)C(O)CO)C2NC(C)=O)(C(=O)O)OC1CNC12CC3CC(CC(C3)C1)C2` (stereo not drawn) [THE 10/01, Amantadine-C7-Neu5Ac—C12H20N4O7], the EC50 in series [1] came out at 11.7 µM; in series [3], 99.5 µM; in series [4], 18.3 µM.
Turning to `CC(=O)N[C@H]1[C@H]([C@H](O)[C@H](O)CO)OC(C(=O)O)=C[C@@H]1N=C(N)N` [zanamivir], the “absorbed by oral route” value in series [5] is listed as “about 2%”.
